A short description of data set [1]: Intrinsic dissolution rate and solubility in 0.1 N HCl with 1% Tween 80 (USP <1087>). It counts as physicochemical. To be noted: for Intrinsic Dissolution Rate IDR: paddle 100 rpm, die surface 0.5 cm^2. On the procedure: The intrinsic dissolution rate was determined by forming compacted pellets of approximately 75 mg of API using a compression force of 1200 pounds of force, and each pellet (die surface area: 0.5 cm^2) was immersed into a flat bottom vessel containing 500 mL of medium (aqueous 0.1 N HCl with 1% Tween 80 (polyoxyethylene (20) sorbitan monooleate)), using a Distek 2100A dissolution bath, and Distek Circulator/heater (set to 37° C.), with a paddle speed of 100 rpm. An aliquot of the sample (1 mL) was pulled from dissolution media at 15, 30, 45, 60, 75, 90, 105, and 120 minutes, filtered, and analyzed by HPLC. The slope of the dissolution profile corresponded to an intrinsic dissolution rate of hemi-fumarate salt Form B of 6.2 μg/(min·cm^2) as compared to 8.9 μg/(min·cm^2) for Compound 1 (free base). Determination of intrinsic dissolution rate (IDR) was performed for Compound 1 and seven different salts of Compound 1 according to USP <1087> in 0.1 N hydrochloric acid with 1% Tween 80 (Polyoxyethylene […] sorbitan monooleate). Compacted pellets containing approximately 75 mg API were prepared using a compression force of 1200 pounds of force, and each pellet (die surface area: 0.5 cm^2) was immersed into a flat bottom vessel containing 500 mL of medium, using a Distek 2100A dissolution bath, and Distek Circulator/heater (set to 37° C.), with a paddle speed of 100 rpm. An aliquot of the sample (1 mL) was pulled from dissolution media at 15, 30, 45, 60, 75, 90, 105, and 120 minutes, filtered, and analyzed by HPLC. HPLC for IDR and solid-state stability analyses were conducted with an Agilent 1260 Infinity system equipped with a G1311B Quad pump, […] Autosampler, G1330B auto-sampler thermostat, G1316A Thermostatted Column Compartment with a column switch valve, and […] diode array detector.

Data set [2] can be described thus: Oral non-human primate crossover PK study (Example 7). It counts as in vivo, cynomolgus monkeys. The conditions noted are these: both micronized and non-micronized form; cynomolgus monkeys, single PO capsule. The source says: An objective of this study is to determine the Pharmacokinetic (PK) profile of the Test Article following a single oral administration to four male non-human primate cynomolgus monkeys with one (1) week wash out periods.
Four male animals are used for this study, and the four study animals are used for each of three dosing phases with one-week washout periods. Food is withheld overnight prior to dose administration, and food is returned four hours post-dose administration. Water is provided ad libitum by automatic watering device. Two of the four animals are previously treated with Compound 1, and the other two are Compound 1 naive. Test Article (M-3, N-3, or K-13) are provided as capsulized powders; stored at room temperature protected from light in, for example, a polyolefin bottle.

Data set [3] in a line: Solid-state stability by HPLC and XRPD. Format: physicochemical. The conditions noted are these: after 4 weeks. On the procedure:
Solid-state stability of the fumarate salt of Compound 1 was assessed after storage at the following conditions for 2 and 4 weeks by HPLC and XRPD: 40° C./75% RH (opened); and 50° C./ambient RH (closed). […] Solid-state stability of Compound 1 and seven salts of Compound 1, as in Example 8, was assessed after storage at the following conditions for 2 and 4 weeks by HPLC and PXRD: 40° C./75% RH (opened); and 50° C./ambient RH (closed). HPLC for IDR and solid-state stability analyses were conducted with an Agilent 1260 Infinity system equipped with a G1311B Quad pump, […] Autosampler, G1330B auto-sampler thermostat, G1316A Thermostatted Column Compartment with a column switch valve, and […] diode array detector.

Data set [4] can be described thus: Gravimetric vapor sorption (GVS). Format: physicochemical. The protocol: Selected physicochemical data of Form B were collected. Hemi-fumarate salt Form B was determined to be crystalline by polarized-light microscopy (PLM) and XRPD. […] (ΔH=1.7 J/g), followed immediately by a sharp endotherm at 199.6° C. […] (see FIG. 7). Proton NMR confirmed a hemi-salt with 0.5:1 CI:API ratio. […] No change in the XRPD pattern was observed post GVS.
GVS experiments were conducted on a Surface Measurement Systems DVS-Advantage. The experiments were performed at 25° C. The instrument was operated in step mode and the relative humidity was increased in 10% RH increments from 40% RH to 75% RH, then decreased from 75% RH to 5% RH, then increased a second time from 5% RH to 95% RH, then decreased from 95% RH to 5% RH. The mass equilibrium criterion was set at 0.003% change in mass over time (dm/dt). A minimum step time of 20 minutes and a maximum step time of 240 minutes were specified.

Data set [5] in a line: Pharmacokinetic analysis of Compound 1 and its salts after oral capsule administration (Example 4). It counts as in vivo, cynomolgus monkeys. The conditions noted are these: single PO capsule, 30 mg/kg. The protocol:
A pharmacokinetic analysis was performed comparing administration of Compound 1 with certain salts of Compound 1 after oral (PO) administration in 3 male cynomolgus monkeys. The subjects received a single PO oral gavage of active pharmaceutical ingredient (API) (e.g., Compound 1 fumarate, Compound 1 sulfate, Compound 1 hydrochloride, Compound 1 phosphate, Compound 1 tosylate, Compound 1 malonate, Compound 1 maleate, or Compound 1 free base) in a capsule at a dose of 30 mg/kg. Following dose administration, the animals were flushed with approximately 10 milliliters of tap water to ensure all API was administered. Animals were observed twice daily and at sample collection time-points for any abnormal clinical and behavioral signs. Body weights were taken prior to dosing and weekly thereafter until study termination. Blood samples (0.5 mL) were collected pre-dose, 15 minutes, 30 minutes, and 1, 2, 4, 6, 8, 10, 12, and 24 hours post-dose. Each blood sample was collected from the monkey's femoral, saphenous or other available vein via direct venipuncture, placed into a polypropylene tube containing K2EDTA as the anticoagulant, and gently inverted several times to mix. The blood samples were kept on wet ice until centrifugation. Blood was centrifuged within 10 minutes of collection. The samples were centrifuged at a temperature of 4° C., at 3,000 g, for 5 minutes. The resulting plasma (˜0.25 mL) was divided into two equal aliquots (125 μL each) into polypropylene tubes, designated as Set A and Set B, after centrifugation. Plasma samples designated for certain metabolites (Set A) were treated with 12.5 μL of 2 M ascorbic acid (plasma: ascorbic acid=[…], v:v) prepared beforehand by combining 0.352 g of ascorbic acid into 1 mL of sterile water in a glass vial and mixing thoroughly. […] Once plasma was prepared, the samples were snap frozen on dry ice. All plasma samples were stored frozen below −70° C. until analyzed.

Where [6] appears, read: 0.1 N HCl with 1% Tween 80, 37° C., 500 mL, pellet about 75 mg.
[7] abbreviates: 3 male cynomolgus monkeys, plasma Compound 1.

Counter-ions that a name gives are not always drawn.

Broadly, the Cmax is the maximum level reached in the sampled fluid or tissue. As usually defined, the Tmax is the time from dosing to the highest level. As usually defined, the AUC(0-t) is the area under the concentration-time curve up to a stated or last time point. For orientation: solubility means the concentration that dissolves in the medium under given conditions.

For the molecule `[2H]C([2H])([2H])C(c1cc2nnc(-c3cc(F)ccc3F)n2nc1OCc1ncnn1C)(C([2H])([2H])[2H])C([2H])([2H])[2H]` [Fumarate Salt, 3-(2,5-difluorophenyl)-7-[1,1-di(methyl-d3)ethyl-2,2,2-d3]-6-[(1-methyl-1H-1,2,4-triazol-5-yl)methoxy]-1,2,4-triazolo[4,3-b]pyridazine], in data set [1] (setting [6]), the “Solubility, time point 15 min” value turned out to be 0.342 µg/mL and the “Solubility, time point 120 min” value came out at 0.993 µg/mL. Moreover, in data set [1] (0.1 N HCl with 1% Tween 80, 37° C., 500 mL, pellet about 75 mg, 30 min), the “Solubility, time point 30 min” value was determined as 0.404 µg/mL. For the same molecule, the “Solubility, time point 45 min” value in data set [1] (0.1 N HCl with 1% Tween 80, 37° C., 500 mL, pellet about 75 mg, 45 min) came to 0.46 µg/mL. Also, in data set [1] (0.1 N HCl with 1% Tween 80, 37° C., 500 mL, pellet about 75 mg, 60 min), the “Solubility, time point 60 min” value is 0.576 µg/mL. Besides, in data set [1] (0.1 N HCl with 1% Tween 80, 37° C., 500 mL, pellet about 75 mg, 75 min), the “Solubility, time point 75 min” value worked out at 0.684 µg/mL. The “Solubility, time point 90 min” value in data set [1] (0.1 N HCl with 1% Tween 80, 37° C., 500 mL, pellet about 75 mg, 90 min) is 0.79 µg/mL. Besides, the “Solubility, time point 105 min” value in data set [1] (0.1 N HCl with 1% Tween 80, 37° C., 500 mL, pellet about 75 mg, 105 min) was 0.87 µg/mL. In addition, the “Intrinsic Dissolution Rate IDR” value in data set [1] (0.1 N HCl with 1% Tween 80, 37° C.) was 6.2 μg/(min · cm^2). For the same molecule, in data set [1] (0.1 N HCl with 1% Tween 80, 37° C., listed as hemi-fumarate salt Form B), the “Intrinsic Dissolution Rate IDR” value is on record as 6.2 μg/(min · cm^2). For the same molecule, the “Solubility, Cumulative” value in data set [1] (sum of the 15-120 min time points, 0.1 N HCl with 1% Tween 80, 37° C.) is 5.119 µg/mL. Further, in data set [2], the “exposure to Compound 1 as compared to subjects dosed with the free base” value is listed as “superior exposure”. The “Solid-state stability by HPLC or XRPD” value in data set [3] (40° C./75% RH (opened) and 50° C./ambient RH (closed)) is “No significant changes”. Moreover, the “XRPD pattern post GVS” value in data set [4] (after GVS) is given as “No change”. Besides, the “moisture uptake (GVS)” value in data set [4] (between 5-95% RH, 25° C.) is reported as less than 0.1 % wt. In addition, in data set [5] (setting [7]), the Cmax turned out to be 3080 ng/mL and the Tmax worked out at 4.7 h. In addition, in data set [5] (3 male cynomolgus monkeys, plasma Compound 1, listed as fumarate salt of Compound 1, 30 mg/kg), the Cmax entry was “about 3080 ng/mL”. In data set [5] (male cynomolgus monkeys), the “AUClast higher than that of Compound 1” value is listed as “over 50%” and the “Cmax higher than that of Compound 1 (free base)” value is reported as “over 98%”. Also, the AUC(0-t) in data set [5] (male, cynomolgus monkey, plasma, po, male cynomolgus monkeys) was determined as 38900 ng·h/mL.

Take `[2H]C([2H])([2H])C(c1cc2nnc(-c3cc(F)ccc3F)n2nc1OCc1ncnn1C)(C([2H])([2H])[2H])C([2H])([2H])[2H]` [Hydrochloride Salt, 3-(2,5-difluorophenyl)-7-[1,1-di(methyl-d3)ethyl-2,2,2-d3]-6-[(1-methyl-1H-1,2,4-triazol-5-yl)methoxy]-1,2,4-triazolo[4,3-b]pyridazine]: in data set [1] (setting [6]), the “Solubility, time point 15 min” value was found to be 0.452 µg/mL and the “Solubility, time point 120 min” value turned out to be 1.13 µg/mL. Further, the “Intrinsic Dissolution Rate IDR” value in data set [1] (0.1 N HCl with 1% Tween 80, 37° C., listed as HCl Salt) was 6.9 μg/(min · cm^2). The solubility at 30 min in data set [1] (0.1 N HCl with 1% Tween 80, 37 °C, aqueous with cosolvent or surfactant or cyclodextrin, 500 mL, pellet about 75 mg, 30 min, read-out: Solubility, time point 30 min) amounted to 0.358 µg/mL. In data set [1] (0.1 N HCl with 1% Tween 80, 37 °C, aqueous with cosolvent or surfactant or cyclodextrin, 500 mL, pellet about 75 mg, 45 min, read-out: Solubility, time point 45 min), the solubility at 45 min is 0.561 µg/mL. Also, the solubility at 60 min in data set [1] (0.1 N HCl with 1% Tween 80, 37 °C, aqueous with cosolvent or surfactant or cyclodextrin, 500 mL, pellet about 75 mg, 60 min, read-out: Solubility, time point 60 min) was 0.59 µg/mL. In addition, in data set [1] (0.1 N HCl with 1% Tween 80, 37 °C, aqueous with cosolvent or surfactant or cyclodextrin, 500 mL, pellet about 75 mg, 75 min, read-out: Solubility, time point 75 min), the solubility at 75 min amounted to 0.723 µg/mL. The solubility at 90 min in data set [1] (0.1 N HCl with 1% Tween 80, 37 °C, aqueous with cosolvent or surfactant or cyclodextrin, 500 mL, pellet about 75 mg, 90 min, read-out: Solubility, time point 90 min) was 0.847 µg/mL. For the same molecule, the solubility at 105 min in data set [1] (0.1 N HCl with 1% Tween 80, 37 °C, aqueous with cosolvent or surfactant or cyclodextrin, 500 mL, pellet about 75 mg, 105 min, read-out: Solubility, time point 105 min) was found to be 0.989 µg/mL. The solubility in data set [1] (0.1 N HCl with 1% Tween 80, 37 °C, aqueous with cosolvent or surfactant or cyclodextrin, sum of the 15-120 min time points, read-out: Solubility, Cumulative) was 5.65 µg/mL. The “Solid-state stability, XRPD pattern” value in data set [3] (40° C./75% RH) is listed as “small signal at 10° 2θ of Compound 1 (free base)”. In data set [5] (setting [7]), the AUClast is 25402 ng·h/mL, the Cmax is 1583 ng/mL and the Tmax came to 4.0 h.

Source of the values: patent publication US20250275966A1, “GABAA RECEPTOR MODULATOR SALTS, PARTICLES, AND USES THEREOF” (Engrail Therapeutics, Inc., priority 2022, published 2025).
